Experiments:
[1] = Light stability of lacidipine solution in differently coloured polypropylene vessels exposed to daylight; type: physicochemical; details: daylight 6 to 8 hours
Procedure: As a representative of the very light-sensitive 1,4-dihydropyridine derivatives, lacidipine is used. By way of the example of lacidipine it is possible to show the influence the absorption spectrum of a polymer, for instance, one based on polypropylene, has on the stability of the 1,4-dihydropyridine derivative.
To carry out the experiment, the lacidipine was dissolved in a solvent. Since dissolved lacidipine is very sensitive to electromagnetic-radiation, it was possible to clearly determine the influence of the polymers examined. The lacidipine solution was filled in differently coloured vessels of polypropylene and exposed to daylight for a defined period of time. The vessels in this context served as models for a coloured film. After the vessels had been exposed to a certain radiation (for a time of 6 to 8 hours), the lacidipine content of the samples was determined. On the basis of the known initial concentration and the detected active substance amounts it was possible to make a statement on the protective action of the polymers used.
The absorption spectrum of lacidipine contains three maxima [238.4 nm; 282.8 nm; 367.4 nm]. These wavelength regions determine the light-sensitivity of the active substance. […] It can thus be concluded that to ensure maximum stability in the present case brown or aluminized polymers should be used.

[2] = cited from earlier work

Amount of active substance after irradiation ([1]; polymer aluminized, lichtundurchlässig) | Amount of active substance after irradiation ([1]; polymer blue, clear, absorption range <325 nm, 500 nm-700 nm) | Amount of active substance after irradiation ([1]; polymer brown, clear, absorption range <500 nm) | Amount of active substance after irradiation ([1]; polymer green, clear, absorption range <325 nm, >800 nm) | Amount of active substance after irradiation ([1]; polymer orange, klar, absorption range 550 nm-750 nm) | Amount of active substance after irradiation ([1]; polymer transparent, clear, absorption range <300 nm) | Amount of active substance after irradiation ([1]; polymer transparent, cloudy, absorption range <300 nm) | Amount of active substance after irradiation ([1]; polymer yellow, clear, absorption range <350 nm, >700 nm) | SMILES | rate of degradation of the active substance ([2]; with a yellow colourant having its absorption maximum in the range of 400 nm) | stabilisation against light ([2]; with light-stability or screening agents absorbing UV-A or UV-B rays)
99.36 % of initial amount | 23.46 % of initial amount | 98.93 % of initial amount | 12.40 % of initial amount | 15.65 % of initial amount | 14.79 % of initial amount | 21.05 % of initial amount | 29.32 % of initial amount | CCOC(=O)C1=C(C)NC(C)=C(C(=O)OCC)C1c1ccccc1/C=C/C(=O)OC(C)(C)C [lacidipine] |  | 
 |  |  |  |  |  |  |  | CC1=C(/C=C/C(C)=C/C=C/C(C)=C/C(=O)O)C(C)(C)CCC1 [vitamine A acid] | substantially reduced | did not yield the desired results

From patent publication US20030102246A1, “Method for improving the stability of stored and/or used light-sensitive therapeutic systems or components thereof” (LTS Lohmann Therapie-Systeme AG, priority 1999, published 2003)
